We go through five compounds from patent publication US20020061927A1, “Insulin receptor activators for the treatment of metabolic disorders induced by treatment with HIV protease inhibitors” (priority 2000, published 2002).

The structures appear in SMILES notation.

The subject of one assay is 3T3 L1 adipocytes. The experiment in a line: Reversal of HIV protease inhibitor block of glucose transport in cells (14C-2-deoxy-D-glucose uptake). It is filed as cell-based. The note with it: for glucose transport: 3T3 L1 cells; for effect on glucose transport activity inhibited by HIV protease inhibitor drugs: 3T3 L1 adipocytes in presence of Ritonavir, Indinavir or Amprenavir; for effect of HIV protease inhibitor drug on glucose transport activity: 3T3 L1 adipocytes. As for the experimental part: Stimulation of the insulin receptor leads to the transport of glucose from the blood into cells, thus modulating blood glucose levels. 3T3 L1 fibroblasts (ATCC) were grown in Dulbecco's modified Eagle's medium (DMEM) with 10% fetal bovine serum (FBS). The cells were plated at a density of 3×10^4 cells/ml in 96 well plates (0.1 ml/well). Two days after confluence was reached, the cells were treated for 3 days with 0.5 mM isobutylmethylxanthine (IBMX), 1 μM dexamethasone, and 1.7 μM insulin. The cells were then transferred to DMEM with 10% FBS and supplemented with 1.7 μM insulin for 2 more days. The cells were maintained in DMEM with 10% FBS for an additional 4 days. Finally, the cells were serum starved overnight in 0.1% bovine serum albumin (BSA) in DMEM.
The following day, the cells were pretreated with Indinavir, Ritonavir, or Amprenavir (at the concentrations indicated in the Tables below) in a buffer containing 150 mM NaCl, 1.7 mM KCl, 0.9 mM CaCl2 1.47 mM K2HPO4 (pH 7.4) and 0.01% BSA for 6 minutes followed by treatment with a compound described in this patent (56 μM compound 1; 20 μM compound 2) with or without 100 nM insulin for 30 minutes. Following incubation, the cells were labeled with ^14C-labeled 2-deoxy-D-glucose (0.5 μCi/ml) and incubation was continued for additional 30 minutes at 37° C. The cells were then washed 3 times with ice-cold PBS/20 mM glucose and lysed in 100 μl of lysis buffer (50 mM Hepes pH 7.6, 1% Triton X-100) for 30 minutes at room temperature. Radioactivity in the lysate was quantified by scintillation counting.
Once ^14C-2-deoxy-D-glucose is transported into the cells, it is not released. Glucose transport is, therefore, proportional to the amount of radioactivity in the lysate.

Another assay deals with male CD rats. The experiment in a line: Reversal of protease inhibitor-mediated insulin resistance in normal rats (oral glucose challenge). Format: in vivo, rat. The conditions noted are these: indinavir sulfate plus compound 1, oral. The method, then: Seven to nine week-old male CD rats (Charles River Laboratories, Hollister, Calif.) were used to study the effects of protease inhibitor and compound 1. Animals were kept in a 12 h/12 h light/dark cycle and were fasted overnight.
Indinavir sulfate was prepared in water, and compound 1 was prepared in PBS. Seven animals (average weight 300 grams) were used in each treatment condition. The animals were treated with vehicle or indinavir sulfate or indinavir sulfate plus compound 1 by oral administration. After 30 min, the animals were challenged with oral glucose load (2 g/kg), and blood glucose measurements were taken at 0 min, 10 min, 20 min, 30 min, 60 min, 90 min and 120 min by tail bleeding. Glucose measurements were made with a Glucometer and Glucose strips (Bayer).
The blood glucose levels are reported as the percentage of the values before challenge (“zero time” values).
Blood samples obtained from 0 min and 30 min time points were analysed for plasma insulin levels by ELISA (ALPCO Diagnostics, Windham, N.H.).

[1] abbreviates: 5 μM Amprenavir pretreatment, 56 μM compound 1 / 20 μM compound 2.
[2] abbreviates: 5 μM Indinavir pretreatment, 56 μM compound 1 / 20 μM compound 2.
Where [3] appears, read: 10 μM Amprenavir pretreatment, 56 μM compound 1 / 20 μM compound 2.
Setting [4] is: 10 μM Indinavir pretreatment, 56 μM compound 1 / 20 μM compound 2.
Setting [5] is: 20 μM Indinavir pretreatment, 56 μM compound 1 / 20 μM compound 2.

As for `O=C(Nc1ccc2c(O)cc(S(=O)(=O)Nc3ccc(Cl)c(S(=O)(=O)O)c3)cc2c1)Nc1ccc2c(O)cc(S(=O)(=O)Nc3ccc(Cl)c(S(=O)(=O)O)c3)cc2c1` [Compound 1], the glucose transport was 1.83 fold over fold over 50 nM insulin with 3T3 L1 adipocytes (setting [1]); 1.34 fold over fold over 50 nM insulin in the assay with 3T3 L1 adipocytes (setting [2]); 1.32 foldover fold over 50 nM insulin with 3T3 L1 adipocytes (5 μM Ritonavir pretreatment, 56 μM compound 1); 1.53 fold over fold over 50 nM insulin in the assay with 3T3 L1 adipocytes (setting [3]); 1.16 fold over fold over 50 nM insulin in the assay with 3T3 L1 adipocytes (setting [4]); 1.21 fold over fold over 50 nM insulin in the assay on 3T3 L1 adipocytes (20 μM Amprenavir pretreatment, 56 μM compound 1). Further, the glucose transport in the assay with 3T3 L1 adipocytes (setting [5]) is given as 1.12 fold over fold over 50 nM insulin. Also, in the assay on 3T3 L1 adipocytes, the “effect on glucose transport activity inhibited by HIV protease inhibitor drugs” value is “increase the glucose transport activity”. Further, the “protease inhibitor-mediated insulin resistance” value with male CD rats is given as “Reversal of Protease Inhibitor-mediated Insulin Resistance”.
Turning to `O=C(Nc1ccc2c(O)c(/N=N/c3ccc(/N=N/c4ccc(S(=O)(=O)O)cc4)cc3S(=O)(=O)O)c(S(=O)(=O)O)cc2c1)Nc1ccc2c(O)cc(S(=O)(=O)O)c(N=Nc3ccc(/N=N/c4ccc(S(=O)(=O)O)cc4)cc3S(=O)(=O)O)c2c1` [Compound 2], the glucose transport with 3T3 L1 adipocytes (setting [1]) is 1.25 foldover fold over 50 nM insulin; with 3T3 L1 adipocytes (setting [2]) it was 1.38 fold over fold over 50 nM insulin; in the assay with 3T3 L1 adipocytes (setting [3]), 1.07 foldover fold over 50 nM insulin; with 3T3 L1 adipocytes (setting [4]), 1.25 fold over fold over 50 nM insulin; in the assay on 3T3 L1 adipocytes (setting [5]), 1.02 fold over fold over 50 nM insulin. Also, the “effect on glucose transport activity inhibited by HIV protease inhibitor drugs” value in the assay with 3T3 L1 adipocytes was “increase the glucose transport activity”.
For `CC(C)CN(C[C@@H](O)[C@H](Cc1ccccc1)NC(=O)O[C@H]1CCOC1)S(=O)(=O)c1ccc(N)cc1` [Amprenavir, reference compound], in the assay on 3T3 L1 adipocytes, the “effect of HIV protease inhibitor drug on glucose transport activity” value is given as “inhibited”.
Same read-out and setting: as for `CC(C)c1nc(CN(C)C(=O)N[C@H](C(=O)N[C@@H](Cc2ccccc2)C[C@H](O)[C@H](Cc2ccccc2)NC(=O)OCc2cncs2)C(C)C)cs1` [Ritonavir, reference compound], the entry is “inhibited”.
Same read-out and setting: next, `CC(C)(C)NC(=O)[C@@H]1CN(Cc2cccnc2)CCN1C[C@@H](O)C[C@@H](Cc1ccccc1)C(=O)N[C@H]1c2ccccc2C[C@H]1O` [Indinavir, reference compound]: “inhibited”.
